According to US20170252442A1, “PHOTOHEXER COMPOUNDS AND PHARMACEUTICAL COMPOSITION AND USE THEREOF” (RAINBOW PHARMATECH LLC, priority 2014, published 2017):

Key:
[1] = test system: Eca-109 cells; assay: MTT assay, photodynamic therapy on Eca-109 cells; format: cell-based, human
Description: (§1) The cells in logarithmic growth phase were collected and inoculated on 24-well culture plates. When reaching 70%-80% confluence, cells were divided randomly into the following groups: control (the parallel control group without photosensitizer and irradiation), irradiation (irradiation treatment alone without photosensitizer); (photosensitizer treatment alone without irradiation), photodynamic treatment (treatment by photosensitizer in combination with irradiation). For the photosensitizer alone treatment group and photodynamic treatment group, an appropriate amount of Photohexer-1 (P-1) or Photohexer-2 (P-2) was respectively added away from light to give a final concentration of 0.8, 1.6, 3.2, 6.4 μM. Each group set 3 replicates. Cells were incubated with the active agent, different treatments were carried out according to the grouping. […] After treatment and digestion of each group of cells, it was inoculated into a 96-well plate at 100 μL/well, and four wells were set for each treatment. MTT assay was performed after 24 h from inoculation: 20 μL MTT solution was added to each well under the condition away from light, and the culture was continued for 4 hours. 150 μL DMSO was added to each well after discarding the supernatant. After 15 min of dissolution, the absorbance value (OD value) was measured using a microplate reader and the relative survival rate of cells was calculated according to the following formula: […]

[2] = test system: SW-480 cells; assay: MTT assay, photodynamic therapy on SW-480 cells; format: cell-based, human
Description: as §1

[3] = test system: the cell lines; assay: MTT assay, summary over the cell lines (photosensitizer alone); format: cell-based; conditions: without light irradiation; selected drug concentration range (0.8-6.4 μM)
Description: The cells in logarithmic growth phase were collected and inoculated on 24-well culture plates. When reaching 70%-80% confluence, cells were divided randomly into the following groups: control (the parallel control group without photosensitizer and irradiation), irradiation (irradiation treatment alone without photosensitizer); (photosensitizer treatment alone without irradiation), photodynamic treatment (treatment by photosensitizer in combination with irradiation). For the photosensitizer alone treatment group and photodynamic treatment group, an appropriate amount of Photohexer-1 (P-1) or Photohexer-2 (P-2) was respectively added away from light to give a final concentration of 0.8, 1.6, 3.2, 6.4 μM. Each group set 3 replicates. Cells were incubated with the active agent, different treatments were carried out according to the grouping. Three different light intensities were selected for the photodynamic treatment group, which were 2.6, 5.2 and 12.4 J/cm^2, respectively. After treatment and digestion of each group of cells, it was inoculated into a 96-well plate at 100 μL/well, and four wells were set for each treatment. […] After 15 min of dissolution, the absorbance value (OD value) was measured using a microplate reader and the relative survival rate of cells was calculated according to the following formula: […]

[4] = test system: MDA-MB-231 cells; assay: MTT assay, photodynamic therapy on MDA-MB-231 cells; format: cell-based, human
Description: as §1

[5] = test system: 4T1 transplanted tumors; assay: Tumor-inhibition effect of P1 and P2-PDT on 4T1 xenografted mice; format: in vivo, Balb/c mice; conditions: for toxic effects of photosensitizer alone: without irradiation; for toxic effects of photosensitizer alone / tumor inhibition rate: 4T1 tumor-bearing mice; for tumor inhibition rate: day 22 after treatment
Experimental: Experimental groups: blank control (2 mice), P-1 alone treatment (4 mg/kg, 8 mice), P-2 alone treatment (2 mg/kg, 8 mice), P-1 treatment (2 mg/kg, 4 mg/kg, 8 mice/group) combined with light irradiations, P-2 treatment (1 mg/kg, 2 mg/kg, 4 mg/kg, 8 mice/group) combined with light irradiations, 66 Balb/c mice in total.

[6] = 0.8 μM alone treatment, without irradiation
[7] = 0.8 μM combined with 2.6 J/cm^2 light irradiation
[8] = 0.8 μM combined with 5.2 J/cm^2 light irradiation
[9] = 0.8 μM combined with 10.4 J/cm^2 light irradiation
[10] = 1.6 μM alone treatment, without irradiation
[11] = 1.6 μM combined with 2.6 J/cm^2 light irradiation
[12] = 1.6 μM combined with 5.2 J/cm^2 light irradiation
[13] = 1.6 μM combined with 10.4 J/cm^2 light irradiation
[14] = 3.2 μM alone treatment, without irradiation
[15] = 3.2 μM combined with 2.6 J/cm^2 light irradiation
[16] = 3.2 μM combined with 5.2 J/cm^2 light irradiation
[17] = 3.2 μM combined with 10.4 J/cm^2 light irradiation
[18] = 6.4 μM alone treatment, without irradiation
[19] = 6.4 μM combined with 2.6 J/cm^2 light irradiation
[20] = 6.4 μM combined with 5.2 J/cm^2 light irradiation
[21] = 6.4 μM combined with 10.4 J/cm^2 light irradiation
[22] = 4 mg/kg combined with light irradiation (50 J/cm^2)
[23] = combined with 50 J/cm^2 irradiation

C=CC1=C(C)c2cc3[nH]c(cc4nc(cc5[nH]c(cc1n2)c(C)c5CCC(=O)[O-])C(CCC(=O)[O-])=C4C)c(C)c3C(C)OCCCCCC.[Na+].[Na+] (stereo not shown) [Photohexer P-1, 2-(1-hexyloxyethyl)-6,7-bis(propionatesodium)-1,3,5,8-tetramethyl-4-vinylporphyrin]
photosensitive toxicity compared between P-1 and P-2 [1]: significantly stronger toxicity than that of P-2
Cell survival rate [1, 6]: 99.32 ± 3.43%
Cell survival rate [1, 7]: 84.64 ± 3.79%
Cell survival rate [1, 8]: 74.34 ± 4.23%
Cell survival rate [1, 9]: 60.09 ± 4.54%
Cell survival rate [1, 10]: 97.28 ± 2.48%
Cell survival rate [1, 11]: 64.63 ± 2.39%
Cell survival rate [1, 12]: 66.40 ± 3.12%
Cell survival rate [1, 13]: 41.05 ± 3.47%
Cell survival rate [1, 14]: 92.81 ± 1.37%
Cell survival rate [1, 15]: 44.02 ± 2.05%
Cell survival rate [1, 16]: 41.43 ± 1.27%
Cell survival rate [1, 17]: 36.89 ± 2.26%
Cell survival rate [1, 18]: 80.68 ± 1.04%
Cell survival rate [1, 19]: 42.24 ± 1.01%
Cell survival rate [1, 20]: 37.97 ± 1.04%
Cell survival rate [1, 21]: 35.04 ± 1.34%
Cell survival rate [2, 6]: 101.14 ± 3.20%
Cell survival rate [2, 7]: 99.72 ± 3.16%
Cell survival rate [2, 8]: 95.61 ± 3.11%
Cell survival rate [2, 9]: 89.28 ± 3.01%
Cell survival rate [2, 10]: 100.83 ± 2.47%
Cell survival rate [2, 11]: 97.08 ± 2.89%
Cell survival rate [2, 12]: 94.55 ± 2.77%
Cell survival rate [2, 13]: 85.85 ± 2.68%
Cell survival rate [2, 14]: 98.02 ± 2.59%
Cell survival rate [2, 15]: 96.00 ± 2.24%
Cell survival rate [2, 16]: 85.27 ± 1.89%
Cell survival rate [2, 17]: 65.70 ± 2.01%
Cell survival rate [2, 18]: 91.27 ± 1.09%
Cell survival rate [2, 19]: 77.99 ± 1.22%
Cell survival rate [2, 20]: 65.38 ± 1.32%
Cell survival rate [2, 21]: 57.31 ± 1.03%
cytotoxicity of alone treatment [3]: did not produce significant cytotoxicity
Cell survival rate [4, 6]: 97.82 ± 3.12%
Cell survival rate [4, 7]: 93.29 ± 3.66%
Cell survival rate [4, 8]: 90.67 ± 4.08%
Cell survival rate [4, 9]: 88.23 ± 4.09%
Cell survival rate [4, 10]: 91.07 ± 2.02%
Cell survival rate [4, 11]: 81.63 ± 2.87%
Cell survival rate [4, 12]: 76.33 ± 2.91%
Cell survival rate [4, 13]: 71.13 ± 3.79%
Cell survival rate [4, 14]: 75.52 ± 1.07%
Cell survival rate [4, 15]: 70.24 ± 2.03%
Cell survival rate [4, 16]: 68.08 ± 1.43%
Cell survival rate [4, 17]: 61.29 ± 2.27%
Cell survival rate [4, 18]: 70.10 ± 0.99%
Cell survival rate [4, 19]: 62.22 ± 1.04%
Cell survival rate [4, 20]: 64.88 ± 1.07%
Cell survival rate [4, 21]: 56.27 ± 1.06%
toxic effects of photosensitizer alone ([5]; 4 mg/kg alone): did not show significant toxic effects
tumor inhibition rate [5, 22]: 25.6%
photosensitizer activity on growth of 4T1 transplanted tumors [5, 23]: obvious dose-dependent activity

C=Cc1c(C)c2cc3nc(cc4[nH]c(cc5nc(cc1[nH]2)C(C)=C5C(C)OCCCCCC)c(C)c4CCC(=O)[O-])C(CCC(=O)[O-])=C3C.[Na+].[Na+] (stereo not shown) [Photohexer P-2, 4-(1-hexyloxyethyl)-6,7-bis(propionatesodium)-1,3,5,8-tetramethyl-2-vinylporphyrin]
Cell survival rate [1, 6]: 100.38 ± 4.27%
Cell survival rate [1, 7]: 96.96 ± 3.87%
Cell survival rate [1, 8]: 75.83 ± 4.22%
Cell survival rate [1, 9]: 59.89 ± 4.24%
Cell survival rate [1, 10]: 95.76 ± 3.16%
Cell survival rate [1, 11]: 86.66 ± 2.94%
Cell survival rate [1, 12]: 70.66 ± 3.78%
Cell survival rate [1, 13]: 51.36 ± 3.67%
Cell survival rate [1, 14]: 94.07 ± 2.58%
Cell survival rate [1, 15]: 79.33 ± 2.24%
Cell survival rate [1, 16]: 56.40 ± 2.33%
Cell survival rate [1, 17]: 40.90 ± 2.34%
Cell survival rate [1, 18]: 84.49 ± 1.32%
Cell survival rate [1, 19]: 83.57 ± 1.12%
Cell survival rate [1, 20]: 33.91 ± 1.07%
Cell survival rate [1, 21]: 33.91 ± 1.01%
photodynamic activity compared between P-1 and P-2 [2]: better activity than P-1
Cell survival rate [2, 6]: 101.79 ± 4.08%
Cell survival rate [2, 7]: 100.79 ± 3.76%
Cell survival rate [2, 8]: 96.70 ± 3.63%
Cell survival rate [2, 9]: 94.70 ± 4.16%
Cell survival rate [2, 10]: 96.97 ± 4.27%
Cell survival rate [2, 11]: 91.72 ± 2.89%
Cell survival rate [2, 12]: 87.06 ± 2.51%
Cell survival rate [2, 13]: 75.11 ± 3.24%
Cell survival rate [2, 14]: 68.15 ± 2.78%
Cell survival rate [2, 15]: 63.40 ± 2.24%
Cell survival rate [2, 16]: 53.01 ± 1.99%
Cell survival rate [2, 17]: 43.68 ± 2.54%
Cell survival rate [2, 18]: 57.31 ± 2.33%
Cell survival rate [2, 19]: 45.36 ± 1.22%
Cell survival rate [2, 20]: 42.56 ± 1.06%
Cell survival rate [2, 21]: 27.83 ± 1.13%
cytotoxicity of alone treatment [3]: did not produce significant cytotoxicity
sensitivity compared between P-1 and P-2 [4]: more sensitive than P-1
Cell survival rate [4, 6]: 100.17 ± 4.03%
Cell survival rate [4, 7]: 87.82 ± 4.09%
Cell survival rate [4, 8]: 71.8 ± 4.16%
Cell survival rate [4, 9]: 52.23 ± 4.16%
Cell survival rate [4, 10]: 97.69 ± 3.63%
Cell survival rate [4, 11]: 73.80 ± 3.22%
Cell survival rate [4, 12]: 49.35 ± 3.46%
Cell survival rate [4, 13]: 45.69 ± 3.16%
Cell survival rate [4, 14]: 91.44 ± 2.57%
Cell survival rate [4, 15]: 59.92 ± 2.94%
Cell survival rate [4, 16]: 46.57 ± 2.43%
Cell survival rate [4, 17]: 40.31 ± 2.28%
Cell survival rate [4, 18]: 81.55 ± 1.21%
Cell survival rate [4, 19]: 49.18 ± 1.33%
Cell survival rate [4, 20]: 40.03 ± 1.12%
Cell survival rate [4, 21]: 31.15 ± 0.96%
toxic effects of photosensitizer alone ([5]; 2 mg/kg alone): did not show significant toxic effects
tumor inhibition rate ([5]; 2 mg/kg combined with light irradiation (50 J/cm^2)): 23.35%
tumor inhibition rate [5, 22]: 44.68%
photosensitizer activity on growth of 4T1 transplanted tumors [5, 23]: obvious dose-dependent activity
volume of tumor relative to control group ([5]; combined with 50 J/cm^2 irradiation, 8th to 22nd days after treatment): about half the size of tumors of control group
